Data published in ChEMBL document CHEMBL3272250, “Quinoline derivatives as antiallergy agents. 2. Fused-ring quinaldic acids” (1977).

Test system: Rattus norvegicus
Assay: Antiallergic activity against anti-egg albumin homocytotropic antibody injected Sprague-Dawley rat assessed as inhibition of passive cutaneous anaphylaxis reaction administered iv at the time of egg albumin antigen challenge or ip 30 mins prior to egg albumin antigen challenge
Format: functional
Conditions: read-out: ID50 (the source's name)

**Q.** `O=C(O)c1cc(=O)c2cc3c(=O)cc(C(=O)O)[nH]c3c(Cl)c2[nH]1` was tested. Which ED50 did it give?
**A.** 0.05 mg/kg

**Q.** For `O=C(O)c1cc(=O)c2c(ccc3[nH]c(C(=O)O)cc(=O)c32)[nH]1`, which ED50 is on record?
**A.** 2.5 mg/kg

**Q.** How did the ED50 turn out when `Cc1c(C(=O)O)[nH]c2ccc3[nH]c(C(=O)O)c(C)c(=O)c3c2c1=O` was run?
**A.** 10 mg/kg

**Q.** How did the ED50 turn out when `O=C(O)c1cc(=O)c2c(ccc3c(=O)cc(C(=O)O)[nH]c32)[nH]1` was run?
**A.** 1 mg/kg

**Q.** `O=C(O)c1cc(=O)c2c(cc(C(=O)O)c3c(=O)cc(C(=O)O)[nH]c32)[nH]1` was tested. Which ED50 did it give?
**A.** 10 mg/kg

**Q.** How did the ED50 turn out when `CCCCCc1cc2c(=O)cc(C(=O)O)[nH]c2c2c(=O)cc(C(=O)O)[nH]c12` was run?
**A.** 0.05 mg/kg

**Q.** `Cc1c2[nH]c(C(=O)[O-])cc(=O)c2cc2c(=O)cc(C(=O)[O-])[nH]c12.[Na+].[Na+]` was tested. Which ED50 did it give?
**A.** 0.25 mg/kg

**Q.** Which ED50 does the source give for `N#Cc1c2[nH]c(C(=O)O)cc(=O)c2cc2c(=O)cc(C(=O)O)[nH]c12` here?
**A.** 0.05 mg/kg

**Q.** For `O=C(O)c1cc(=O)c2cc3c(=O)cc(C(=O)O)[nH]c3c(F)c2[nH]1`, which ED50 is on record?
**A.** 0.5 mg/kg

**Q.** How did the ED50 turn out when `COc1c2[nH]c(C(=O)O)cc(=O)c2cc2c(=O)cc(C(=O)O)[nH]c12` was run?
**A.** 0.1 mg/kg

**Q.** How did the ED50 turn out when `Cc1c2c(=O)cc(C(=O)[O-])[nH]c2c(Cl)c2[nH]c(C(=O)[O-])cc(=O)c12.[Na+].[Na+]` was run?
**A.** 0.01 mg/kg

**Q.** `O=C([O-])c1cc(=O)c2cc3c(=O)cc(C(=O)[O-])[nH]c3c(C(=O)O)c2[nH]1.[Na+].[Na+]` was tested. Which ED50 did it give?
**A.** 0.1 mg/kg

**Q.** Which ED50 does the source give for `Cc1c(C(=O)[O-])[nH]c2c(C)c3[nH]c(C(=O)O)c(C)c(=O)c3cc2c1=O.[Na+]` here?
**A.** 5 mg/kg

**Q.** With `O=C(O)c1cc(=O)c2c(C(F)(F)F)c3c(=O)cc(C(=O)O)[nH]c3c(Cl)c2[nH]1` as the compound, how does the ED50 read?
**A.** 5 mg/kg

**Q.** `O=C(O)c1cc(=O)c2c([nH]1)c1c(=O)cc(C(=O)O)[nH]c1c1c(=O)cc(C(=O)O)[nH]c21` was tested. Which ED50 did it give?
**A.** 0.5 mg/kg

**Q.** With `O=C(O)c1cc(=O)c2ccc3c(ccc4c(=O)cc(C(=O)O)[nH]c43)c2[nH]1` as the compound, how does the ED50 read?
**A.** 0.005 mg/kg

**Q.** How did the ED50 turn out when `O=C(O)c1cc(=O)c2cc(Cl)c3c(ccc4c(=O)cc(C(=O)O)[nH]c43)c2[nH]1` was run?
**A.** 0.05 mg/kg

**Q.** `N#Cc1c2c(=O)cc(C(=O)O)[nH]c2c(Cl)c2[nH]c(C(=O)O)cc(=O)c12` was tested. Which ED50 did it give?
**A.** 0.05 mg/kg

**Q.** With `CCCCc1cc2c(=O)cc(C(=O)O)[nH]c2c2c(=O)cc(C(=O)O)[nH]c12` [BUFROLIN] as the compound, how does the ED50 read?
**A.** 0.005 mg/kg

**Q.** With `O=C([O-])c1cc(=O)c2c(OCC(O)COc3cccc4oc(C(=O)[O-])cc(=O)c34)cccc2o1.[Na+].[Na+]` [CROMOLYN SODIUM] as the compound, how does the ED50 read?
**A.** 2.5 mg/kg

**Q.** Which ED50 does the source give for `O=C(O)c1ccc2ccccc2n1` [QUINALDIC ACID] here?
**A.** 50 mg/kg

Species on record: Rattus norvegicus
Assay: Ratio of cromolyn sodium ID50 to compound ID50 for inhibition of passive cutaneous anaphylaxis reaction in Sprague-Dawley rat
Format: functional
Conditions: not given

**Q.** Which Ratio does the source give for `Cc1c2c(=O)cc(C(=O)[O-])[nH]c2c(Cl)c2[nH]c(C(=O)[O-])cc(=O)c12.[Na+].[Na+]` here?
**A.** >250

**Q.** How did the Ratio turn out when `O=C(O)c1cc(=O)c2ccc3c(ccc4c(=O)cc(C(=O)O)[nH]c43)c2[nH]1` was run?
**A.** 500

**Q.** `CCCCc1cc2c(=O)cc(C(=O)O)[nH]c2c2c(=O)cc(C(=O)O)[nH]c12` [BUFROLIN] was tested. Which Ratio did it give?
**A.** 500
